Test results from patent US9918956B2 (SICHUAN JIUZHANG BIOLOGICAL SCIENCE AND TECHNOLOGY CO., LTD, priority 2013, dated 2018).

How the values were obtained:
[1] = hygroscopicity of chlorogenic acid crude drug; format: physicochemical
stability of crude drugs = format: physicochemical; settings: light and heat
[2] = adjuvant compatibility, high temperature (60° C.) test; format: physicochemical
[3] = adjuvant compatibility, high humidity (92.5% relative humidity) test; format: physicochemical; settings: 25° C.
[4] = adjuvant compatibility, bright light exposure test; format: physicochemical; settings: light 4500 lx ± 500 lx
Description: Samples were taken and examined on 0, 5th, 10th days, respectively, and results were depicted in Table 7.

[5] = pH of chlorogenic acid solutions
[6] = pH-degradation reaction rate of chlorogenic acid in buffer solutions
[7] = from pH-degradation reaction rate curve

For `O=C(/C=C/c1ccc(O)c(O)c1)O[C@@H]1C[C@](O)(C(=O)O)C[C@@H](O)[C@H]1O` [chlorogenic acid], the hygroscopicity [1] was “had hygroscopicity”, the “stability of crude drug” value (stability of crude drugs) was “sensitive to light and heat” and the Content ([2]; day 0) was 99.51%. The Description ([2]; day 0) was “Off-white”, the Loss on drying ([2]; day 0) was 2.31% and the “Related substances Others 2” value ([2]; day 0) was 0.154%. For the same compound, the “Related substances Others 3” value ([2]; day 0) was 0.211%, the “Related substances Others 4” value ([2]; day 0) was 0.035% and the “Related substances Others Total” value ([2]; day 0) was 0.504%. The Content ([2]; day 5) was 99.36%, the Description ([2]; day 5) was “Dark brown” and the Loss on drying ([2]; day 5) was 2.25%. For the same compound, the “Related substances Others 2” value ([2]; day 5) was 0.160%, the “Related substances Others 3” value ([2]; day 5) was 0.294% and the “Related substances Others 4” value ([2]; day 5) was 0.039%. For the same compound, the “Related substances Others Total” value ([2]; day 5) was 0.627%, the Content ([2]; day 10) was 99.31% and the Description ([2]; day 10) was “Dark brown”. For the same compound, the Loss on drying ([2]; day 10) was 2.13%, the “Related substances Others 1” value ([2]; day 10) was 0.143% and the “Related substances Others 2” value ([2]; day 10) was 0.175%. For the same compound, the “Related substances Others 3” value ([2]; day 10) was 0.306%, the “Related substances Others 4” value ([2]; day 10) was 0.047% and the “Related substances Others Total” value ([2]; day 10) was 0.670%. For the same compound, the Content ([3]; day 0) was 99.51%, the Description ([3]; day 0) was “Off white” and the Loss on drying ([3]; day 0) was 2.31%. The “Related substances Others 2” value ([3]; day 0) was 0.154%, the “Related substances Others 3” value ([3]; day 0) was 0.211% and the “Related substances Others 4” value ([3]; day 0) was 0.035%. The “Related substances Others Total” value ([3]; day 0) was 0.504%, the Content ([3]; day 5) was 99.47% and the Description ([3]; day 5) was “Pale yellow”. The Loss on drying ([3]; day 5) was 4.22%, the “Related substances Others 2” value ([3]; day 5) was 0.157% and the “Related substances Others 3” value ([3]; day 5) was 0.203%. The “Related substances Others 4” value ([3]; day 5) was 0.036%, the “Related substances Others Total” value ([3]; day 5) was 0.518% and the Content ([3]; day 10) was 99.43%. The Description ([3]; day 10) was “Pale yellow”, the Loss on drying ([3]; day 10) was 4.75% and the “Related substances Others 2” value ([3]; day 10) was 0.174%. The “Related substances Others 3” value ([3]; day 10) was 0.221%, the “Related substances Others 4” value ([3]; day 10) was 0.041% and the “Related substances Others Total” value ([3]; day 10) was 0.570%. The Content ([4]; day 0) was 99.51%, the Description ([4]; day 0) was “Off white” and the Loss on drying ([4]; day 0) was 2.31%. The “Related substances Others 2” value ([4]; day 0) was 0.154%, the “Related substances Others 3” value ([4]; day 0) was 0.211% and the “Related substances Others 4” value ([4]; day 0) was 0.035%. For the same compound, the “Related substances Others Total” value ([4]; day 0) was 0.504%, the Content ([4]; day 5) was 99.15% and the Description ([4]; day 5) was “Dark brown”. For the same compound, the Loss on drying ([4]; day 5) was 2.38%, the “Related substances Others 2” value ([4]; day 5) was 0.483% and the “Related substances Others 3” value ([4]; day 5) was 0.223%. For the same compound, the “Related substances Others 4” value ([4]; day 5) was 0.037%, the “Related substances Others Total” value ([4]; day 5) was 0.871% and the Content ([4]; day 10) was 99.07%. The Description ([4]; day 10) was “Dark brown”, the Loss on drying ([4]; day 10) was 2.54% and the “Related substances Others 2” value ([4]; day 10) was 0.498%. For the same compound, the “Related substances Others 4” value ([4]; day 10) was 0.044%, the “pH value of solution” value ([5]; […] solution before freeze-drying) was “about 3.0” and the “pH value of solution” value ([5]; concentration 0.03%) was “about 3.5”. For the same compound, the “Concentration of chlorogenic acid” value ([6]; buffer pH 1.5, 0 h) was 108.07 µg/mL, the “Concentration of chlorogenic acid” value ([6]; buffer pH 1.5, 3 h) was 97.95 µg/mL and the “Concentration of chlorogenic acid” value ([6]; buffer pH 1.5, 7 h) was 92.20 µg/mL. For the same compound, the “Concentration of chlorogenic acid” value ([6]; buffer pH 1.5, 11 h) was 78.65 µg/mL, the “Concentration of chlorogenic acid” value ([6]; buffer pH 1.5, 17 h) was 76.80 µg/mL and the “Concentration of chlorogenic acid” value ([6]; buffer pH 1.5, 22 h) was 68.79 µg/mL. For the same compound, the “Concentration of chlorogenic acid” value ([6]; buffer pH 2.0, 0 h) was 108.42 µg/mL, the “Concentration of chlorogenic acid” value ([6]; buffer pH 2.0, 3 h) was 98.91 µg/mL and the “Concentration of chlorogenic acid” value ([6]; buffer pH 2.0, 7 h) was 97.79 µg/mL. The “Concentration of chlorogenic acid” value ([6]; buffer pH 2.0, 11 h) was 99.67 µg/mL, the “Concentration of chlorogenic acid” value ([6]; buffer pH 2.0, 17 h) was 90.77 µg/mL and the “Concentration of chlorogenic acid” value ([6]; buffer pH 2.0, 22 h) was 88.26 µg/mL. For the same compound, the “Concentration of chlorogenic acid” value ([6]; buffer pH 3.0, 0 h) was 107.51 µg/mL, the “Concentration of chlorogenic acid” value ([6]; buffer pH 3.0, 3 h) was 103.02 µg/mL and the “Concentration of chlorogenic acid” value ([6]; buffer pH 3.0, 7 h) was 101.91 µg/mL. The “Concentration of chlorogenic acid” value ([6]; buffer pH 3.0, 11 h) was 102.01 µg/mL, the “Concentration of chlorogenic acid” value ([6]; buffer pH 3.0, 17 h) was 96.77 µg/mL and the “Concentration of chlorogenic acid” value ([6]; buffer pH 3.0, 22 h) was 95.18 µg/mL. For the same compound, the “Concentration of chlorogenic acid” value ([6]; buffer pH 4.0, 0 h) was 106.38 µg/mL, the “Concentration of chlorogenic acid” value ([6]; buffer pH 4.0, 7 h) was 95.78 µg/mL and the “Concentration of chlorogenic acid” value ([6]; buffer pH 4.0, 11 h) was 91.29 µg/mL. The “Concentration of chlorogenic acid” value ([6]; buffer pH 4.0, 17 h) was 85.09 µg/mL, the “Concentration of chlorogenic acid” value ([6]; buffer pH 4.0, 22 h) was 80.21 µg/mL and the “Concentration of chlorogenic acid” value ([6]; buffer pH 5.1, 0 h) was 105.96 µg/mL. For the same compound, the “Concentration of chlorogenic acid” value ([6]; buffer pH 5.1, 3 h) was 97.99 µg/mL, the “Concentration of chlorogenic acid” value ([6]; buffer pH 5.1, 7 h) was 88.87 µg/mL and the “Concentration of chlorogenic acid” value ([6]; buffer pH 5.1, 11 h) was 81.70 µg/mL. The “Concentration of chlorogenic acid” value ([6]; buffer pH 5.1, 17 h) was 66.59 µg/mL, the “Concentration of chlorogenic acid” value ([6]; buffer pH 5.1, 22 h) was 55.83 µg/mL and the “Concentration of chlorogenic acid” value ([6]; buffer pH 6.2, 0 h) was 105.67 µg/mL. For the same compound, the “Concentration of chlorogenic acid” value ([6]; buffer pH 6.2, 3 h) was 67.91 µg/mL, the “Concentration of chlorogenic acid” value ([6]; buffer pH 6.2, 7 h) was 43.91 µg/mL and the “Concentration of chlorogenic acid” value ([6]; buffer pH 6.2, 11 h) was 33.46 µg/mL. The “Concentration of chlorogenic acid” value ([6]; buffer pH 6.2, 17 h) was 22.91 µg/mL, the “Concentration of chlorogenic acid” value ([6]; buffer pH 6.2, 22 h) was 18.48 µg/mL and the “pH value of most stable solution” value [6, 7] was 3. For the same compound, the “pH values at which aqueous solutions were more stable” value [6, 7] was 2-4, the lgk ([6]; pH 1.5) was −1.7036 and the “constants of reaction rate k” value ([6]; pH 1.5, first order degradation) was 0.0198. For the same compound, the lgk ([6]; pH 2.0) was −2.0947, the “constants of reaction rate k” value ([6]; pH 2.0, first order degradation) was 0.0080 and the lgk ([6]; pH 3.0) was −2.2931. For the same compound, the “constants of reaction rate k” value ([6]; pH 3.0, first order degradation) was 0.0051, the lgk ([6]; pH 4.0) was −1.9027 and the lgk ([6]; pH 5.1) was −1.5412. For the same compound, the “constants of reaction rate k” value ([6]; pH 5.1, first order degradation) was 0.0288, the lgk ([6]; pH 6.2) was −1.1144 and the “constants of reaction rate k” value ([6]; pH 6.2, first order degradation) was 0.0768.
